Tests used:
[1] = tested on: fatty acid binding protein (FABP); assay: Western blot of fatty acid binding protein in DDC intoxicated mice; format: in vivo, mouse; conditions: MitoQ treatment of DDC intoxicated animals
Procedure: The protein expression level(s) of fatty acid binding protein (FABP) representing a sensitive marker for hepatocyte damage (Monbaliu D . et al., 2005, Transplant Proc. 37(1):413-416) is determined.

DDC intoxicated mice [2] = assay: Serum parameters of liver damage in DDC intoxicated mice; format: in vivo, mouse; conditions: DDC 3 days, simultaneous MitoQ 3, 6 and 12 mg/kg
Procedure: In serum from various animal groups the activity of serum liver enzymes indicating liver damage, namely bilirubin, alanine aminotransferase (ALT/GPT; in diagram represented by white bars), aspartate aminotransferase (ASAT/GOT in diagram represented by black bars) are determined according to standard protocols in clinical diagnostics by employing commercially available kits (No: 11552414; 11876805216; 11876848216 all purchased by Roche AG, Switzerland) on a Hitachi/Roche 917 Analyser.
In serum from various tested animal groups following parameters indicating liver damage, namely bilirubin, alanine aminotransferase (ALT/GPT), aspartate aminotransferase (ASAT/GOT) and glutamate dehydrogenase (GLDH) are determined according to standard protocols in clinical diagnostics employing commercially available kits (No: 11552414; 11876805216; 11876848216; 11929992 all purchased by Roche AG, Switzerland) on a Hitachi/Roche 917 Analyser.

DDC intoxicated mice [3] = assay: Tocopherol quinone content in isolated mouse liver mitochondria; format: in vivo; conditions: DDC intoxicated mice with or without MitoQ
Procedure: In order to evaluate oxidative stress in control versus DDC-intoxicated mice with or without treatment by using antioxidants according to the invention, tocopherol quinone (TQ) content (Gille L. et al., 2004, Biochemic. Pharmacology, 68: 373-381) in isolated liver mitochondria (all tested animal groups prepared according to protocols in Example 3) is performed. The mouse liver mitochondria are prepared according to modified protocol from Staniek K. and Nohl H., 1999, Biochem. et Biophys. Acta, 1413: 70-80; Mela L. and Sietz S., 1979, Methods in Enzymology, Academic Press Inc.: 39-46, and TQ content is normalized to several parameters including protein and cytochrome concentrations and activity tests of complex I (NADH dehydrogenase), complex II (succinate dehydrogenase), complex III (cytochrome bcl) and complex IV (cytochrome oxidase).
A method for rat heart mitochondria (Staniek K. and Nohl H., 1999, Biochem. et Biophys. Acta, 1413: 70-80; Mela L. and Sietz S., 1979, Methods in Enzymology, Academic Press Inc.: 39-46) is adapted for mouse liver (ca. 10% weight compared to rat liver) isolated from various animal groups according to Example 3. The isolation of liver is performed at 4° C. […] The protein concentration is measured with the Biuret method (BSA as standard, at least […] protein needed for double determination) with expected yield of 3 to 6 mg. […]

[4] = tested on: human epithelial cell cancer xenografts; assay: Nude mice tumor xenografts; format: in vivo, mouse
Procedure: Tumor cell lines or primary tumors that are xenografted subcutaneously according to standard methods (Li K. et al., 2003, Cancer Res., 63(13): 3593-3597) include colon adenocarcinomas, invasive ductal carcinomas of the breast, small and non-small cell lung carcinoma, prostate tumors, pancreatic tumors and stomach tumors.
Tumor-derived cell lines (grown in DMEM/10% FBS) are harvested in log-phase growth, washed twice with PBS, resuspended in 1 ml PBS (2.5×10^7 cells/ml), and injected subcutaneously into the right flank of a nude mouse (Hsd: athymic nu/nu, Harlan Winkelmann; aged between 5 and 6 weeks) at 5×10^6 cells/mouse (0.2 ml). Tumor growth is monitored every other day for the indicated periods (depending on the cell type). Tumor size is determined by the product of two perpendicular diameters and the height above the skin surface.

[5] = tested on: DDC- or GF intoxicated mice; assay: Toxic memory effect upon reintoxication with DDC or GF after recovery; format: in vivo, mouse; conditions: 10 weeks DDC or GF, 4 weeks recovery, reexposure 24 to 72 hours with simultaneous treatment
Excerpt: Mouse livers respond to DDC- or GF intoxication first with ballooning of hepatocytes and formation of a denser keratin IF network. After around 6 weeks of intoxication, ballooned hepatocytes show a reduced density of the keratin IF and early MBs can be observed as fine granules associated with the keratin IF network. Continuation of intoxication leads to the appearance of large MBs typically located in the perinuclear cytoplasmic region. […] Upon cessation of intoxication, MBs disappear within several weeks. At 4 weeks of recovery from intoxication, there are groups of hepatocytes devoid of cytoplasmic keratin filaments but still containing small remnants of MBs at the cell periphery in association with desmosomes. If such mice are reexposed to DDC or GF numerous MBs reappear within 24 to 72 hours (Stumptner C. et al., 2001, J. Hepatol., 34: 665-675). This enhanced formation of MBs upon reintoxication was interpreted—in analogy to allergic reactions—as a toxic memory effect.
In another set of experiments, 10 week-intoxication of mice with DDC or GF is followed by 4 weeks of recovery.

[6] = fed to mice on a long term basis; cited from earlier work

MitoQ
FABP protein expression [1]: reaches almost control mice FABP protein expression values
alanine aminotransferase (ALT/GPT) serum activity (DDC intoxicated mice [2]): most prominent reduction
aspartate aminotransferase (AST/GOT) serum activity (DDC intoxicated mice [2]): reduction of enzymatic activity
bilirubin in serum (DDC intoxicated mice [2]; data not shown): remains without any changes
tocopherol quinone (TQ) levels in liver mitochondria (DDC intoxicated mice [3]): elevated TQ levels in DDC intoxicated mice when compared to controls and mice treated with MitoQ
growth of tumors [4]: reduced growth of tumors
necrosis of the tumors [4]: increased necrosis of the tumors
vascularization of the tumor xenografts [4]: decreased vascularization
toxic memory effect (reappearance of MBs) [5]: reduced or abolished
concentrations within the brain, heart, liver, and muscle [6]: potentially therapeutically effective concentrations
safety of feeding [6]: fed safely
